Data as given in publication PMC5458547, “Discovery of first-in-class reversible dual small molecule inhibitors against G9a and DNMTs in hematological malignancies” (Nature Communications, 2017).

How the values were obtained:
CEMO-1 cells = experiment: ALL CEMO-1 xenograft survival; format: in vivo, mice; conditions: 1 mg/kg i.v. daily for 28 days
Description: Statistical results were calculated using the statistical software medcalc.
270 nM for MV4-11 cell line and 200 and 400 nM for OCI-Ly10). Extracellular HMGB1 from 48 h cell culture supernatants was quantified by means of the HMGB1 ELISA Kit II (Shino Test Corp.), following the manufacturer's instructions.
All animal studies had previous approval from the Animal Care and Ethics Committee of the University of Navarra, whereas experiments that used patient samples were approved by the Human Research Ethics Committees of University of Navarra.
The human ALL CEMO-1 xenograft mice model was generated by intravenously (i.v.) injection of 10x10^6 cells diluted in 100 µL of saline solution in the tail vein of a 6-8-week-old female BALB/cA- Rag2-/-γc-/- mice (n=12). Three days after injection, antitumor treatment was started intravenously in 6 mice. 1 mg/kg […]
The control group (n=6) received only
The mice weight was controlled and stable during the treatment.
Statistical results were calculated using the statistical software medcalc. […]
consecutive days. […] Statistical results were calculated using the statistical software medcalc. […]
The control group (n=6) received only saline solution. […] Statistical results were calculated using the statistical software medcalc. […]
washout period, hematological and liver parameters were measured. […]
washout period hematological and liver parameters were measured. […]

LAL-CUN-13 = experiment: Cell proliferation assay (MTS); format: cell-based; conditions: Homo sapiens; ALL, 48 h
5637 = experiment: Cell proliferation assay (MTS); format: cell-based; conditions: Homo sapiens; Bladder
BRD1 = target: T1, BRD1 (Homo sapiens, UniProt O95696); experiment: Epigenetics selectivity panel (BPS Bioscience); format: binding
T1 construct: purchased DiscoverX KINOMEscan (kinases); BPS Bioscience (epigenetic targets)
T1 sequence (O95696 whole entry): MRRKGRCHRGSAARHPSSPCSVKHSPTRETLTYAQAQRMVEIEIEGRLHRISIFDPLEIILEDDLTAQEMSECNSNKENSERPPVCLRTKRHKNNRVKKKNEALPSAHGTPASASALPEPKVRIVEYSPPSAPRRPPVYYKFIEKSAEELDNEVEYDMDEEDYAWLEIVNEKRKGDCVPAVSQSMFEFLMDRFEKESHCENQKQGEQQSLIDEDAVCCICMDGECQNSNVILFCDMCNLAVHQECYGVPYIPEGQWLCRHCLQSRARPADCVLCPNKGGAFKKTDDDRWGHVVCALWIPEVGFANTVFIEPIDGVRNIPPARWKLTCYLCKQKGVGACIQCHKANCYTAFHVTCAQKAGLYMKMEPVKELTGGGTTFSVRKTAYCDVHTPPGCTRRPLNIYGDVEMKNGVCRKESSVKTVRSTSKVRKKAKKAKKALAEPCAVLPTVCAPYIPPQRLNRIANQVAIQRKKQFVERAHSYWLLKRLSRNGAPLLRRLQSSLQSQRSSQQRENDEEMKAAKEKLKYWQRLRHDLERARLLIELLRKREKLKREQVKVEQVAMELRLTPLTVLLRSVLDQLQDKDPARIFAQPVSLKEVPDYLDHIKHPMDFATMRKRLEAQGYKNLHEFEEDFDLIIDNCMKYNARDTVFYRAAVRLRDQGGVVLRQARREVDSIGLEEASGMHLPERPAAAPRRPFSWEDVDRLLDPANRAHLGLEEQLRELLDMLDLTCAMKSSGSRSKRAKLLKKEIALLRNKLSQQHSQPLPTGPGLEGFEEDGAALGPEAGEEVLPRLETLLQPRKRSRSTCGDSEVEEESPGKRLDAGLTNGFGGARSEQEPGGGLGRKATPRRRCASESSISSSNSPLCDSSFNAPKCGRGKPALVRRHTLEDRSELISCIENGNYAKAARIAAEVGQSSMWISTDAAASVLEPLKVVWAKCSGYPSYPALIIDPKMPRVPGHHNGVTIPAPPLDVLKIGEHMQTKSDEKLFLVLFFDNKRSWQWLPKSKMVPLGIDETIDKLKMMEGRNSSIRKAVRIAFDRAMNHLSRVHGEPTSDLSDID

hERG potassium channels = target: T2, hERG potassium channels (Homo sapiens, UniProt Q12809); experiment: hERG blockade assay (Predictor fluorescence polarization); conditions: read-out: hERG binding IC50
T2 construct: purchased Life technologies PV5365
T2 sequence (Q12809 whole entry): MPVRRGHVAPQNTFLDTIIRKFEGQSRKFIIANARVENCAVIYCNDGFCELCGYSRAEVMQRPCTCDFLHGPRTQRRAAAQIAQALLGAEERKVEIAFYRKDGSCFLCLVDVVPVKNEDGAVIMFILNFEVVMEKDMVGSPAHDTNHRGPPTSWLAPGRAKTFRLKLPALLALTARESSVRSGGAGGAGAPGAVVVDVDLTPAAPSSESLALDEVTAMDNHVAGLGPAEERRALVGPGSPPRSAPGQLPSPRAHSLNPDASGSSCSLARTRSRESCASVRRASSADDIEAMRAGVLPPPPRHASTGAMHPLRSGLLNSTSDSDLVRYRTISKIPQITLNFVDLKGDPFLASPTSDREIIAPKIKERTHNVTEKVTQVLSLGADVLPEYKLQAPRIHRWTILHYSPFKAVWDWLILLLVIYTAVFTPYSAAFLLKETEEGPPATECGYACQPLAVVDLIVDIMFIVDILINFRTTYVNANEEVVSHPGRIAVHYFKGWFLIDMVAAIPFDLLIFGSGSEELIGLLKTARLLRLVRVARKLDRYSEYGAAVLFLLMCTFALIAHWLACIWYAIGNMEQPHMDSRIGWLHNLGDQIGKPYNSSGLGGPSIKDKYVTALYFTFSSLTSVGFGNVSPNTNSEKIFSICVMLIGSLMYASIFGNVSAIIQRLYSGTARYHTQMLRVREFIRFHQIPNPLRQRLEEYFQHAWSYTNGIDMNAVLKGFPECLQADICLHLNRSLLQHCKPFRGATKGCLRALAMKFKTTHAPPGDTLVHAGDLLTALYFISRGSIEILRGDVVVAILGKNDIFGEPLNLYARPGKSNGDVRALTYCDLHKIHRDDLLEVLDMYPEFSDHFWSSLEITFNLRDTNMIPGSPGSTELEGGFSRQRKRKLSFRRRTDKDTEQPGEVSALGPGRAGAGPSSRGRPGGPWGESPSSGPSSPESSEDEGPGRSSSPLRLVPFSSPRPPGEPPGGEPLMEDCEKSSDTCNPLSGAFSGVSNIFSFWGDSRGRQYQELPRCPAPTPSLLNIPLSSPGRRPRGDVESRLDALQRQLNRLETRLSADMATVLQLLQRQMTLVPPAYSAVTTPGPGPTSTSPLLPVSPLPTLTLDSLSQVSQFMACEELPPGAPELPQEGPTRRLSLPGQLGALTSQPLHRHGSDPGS

Row | Compound | survival (CEMO-1 cells) | GI50 (LAL-CUN-13) [nM] | GI50 5637 [nM] | inhibition at 10 µM (BRD1) [%] | IC50 (hERG potassium channels) [nM]
1 | COc1cc2c(NC3CCN(C)CC3)cc(-c3ccc(C)o3)nc2cc1OCCCN1CCCC1 [CM-272, 6-methoxy-2-(5-methyl-2-furyl)-N-(1-methyl-4-piperidyl)-7-(3-pyrrolidin-1-ylpropoxy)quinolin-4-amine] | not able to prolong survival | 1400 | 717 | 0 | –
2 | COc1cc2c(NCC3CCN(C)CC3)cc(-c3ccc(C)o3)nc2cc1OCCCN1CCCC1 [CM-579, 6-methoxy-2-(5-methyl-2-furyl)-N-[(1-methyl-4-piperidyl)methyl]-7-(3-pyrrolidin-1-ylpropoxy)quinolin-4-amine] | – | – | – | – | > 100000
